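Where inhibition never reached the appropriate level, the endpoint shown equals the highest concentration tested. Otherwise, values were interpolated linearly from a five-concentration, 48-hour dose response in 96-well plates. GI50: concentration for 50% inhibition of growth. TGI: concentration producing complete growth inhibition.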
How the values were obtained:
Experiment in all cases: growth of human tumour cells (NCI), 48 h
A549 NSCLC = system: A549 NSCLC
OVCAR-4 ovarian = system: OVCAR-4 ovarian
SNB-75 CNS = system: SNB-75 CNS
SF-539 CNS = system: SF-539 CNS
KM12 colon = system: KM12 colon
HCC-2998 colon = system: HCC-2998 colon
RPMI-8226 leukemia = system: RPMI-8226 leukemia
HOP-62 NSCLC = system: HOP-62 NSCLC
HS 578T breast = system: HS 578T breast
NCI-H460 lung = system: NCI-H460 lung
COLO 205 colon = system: COLO 205 colon
T-47D breast = system: T-47D breast
SK-MEL-28 melanoma = system: SK-MEL-28 melanoma
SF-268 CNS = system: SF-268 CNS
SN12C renal = system: SN12C renal
M14 melanoma = system: M14 melanoma
NCI/ADR-RES ovarian = system: NCI/ADR-RES ovarian
K-562 leukemia = system: K-562 leukemia
NCI-H23 lung = system: NCI-H23 lung
SK-MEL-2 melanoma = system: SK-MEL-2 melanoma
786-0 renal = system: 786-0 renal
ACHN renal = system: ACHN renal
OVCAR-3 ovarian = system: OVCAR-3 ovarian
NCI-H522 lung = system: NCI-H522 lung
LOX IMVI melanoma = system: LOX IMVI melanoma
SNB-19 CNS = system: SNB-19 CNS
BT-549 breast = system: BT-549 breast
PC-3 prostate = system: PC-3 prostate
A498 renal = system: A498 renal
SW-620 colon = system: SW-620 colon
HCT-15 colon = system: HCT-15 colon
HCT-116 colon = system: HCT-116 colon
MDA-MB-231 breast = system: MDA-MB-231 breast
MOLT-4 leukemia = system: MOLT-4 leukemia
HT29 colon = system: HT29 colon
IGROV1 ovarian = system: IGROV1 ovarian
UACC-257 melanoma = system: UACC-257 melanoma
U251 CNS = system: U251 CNS
SK-OV-3 ovarian = system: SK-OV-3 ovarian
CAKI-1 renal = system: CAKI-1 renal
UACC-62 melanoma = system: UACC-62 melanoma
UO-31 renal = system: UO-31 renal
OVCAR-5 ovarian = system: OVCAR-5 ovarian
CCRF-CEM leukemia = system: CCRF-CEM leukemia
SF-295 CNS = system: SF-295 CNS
RXF 393 renal = system: RXF 393 renal
MCF7 breast = system: MCF7 breast
MDA-MB-435 = system: MDA-MB-435
SK-MEL-5 melanoma = system: SK-MEL-5 melanoma
OVCAR-8 ovarian = system: OVCAR-8 ovarian
DU-145 prostate = system: DU-145 prostate
MALME-3M melanoma = system: MALME-3M melanoma
NCI-H226 lung = system: NCI-H226 lung
HOP-92 NSCLC = system: HOP-92 NSCLC
TK-10 renal = system: TK-10 renal
SR leukemia = system: SR leukemia

## O=C(Nc1ccc(OCc2nnc(-c3ccc(Cl)cc3)o2)c(F)c1)Nc1ccc(Cl)c(Cl)c1
A549 NSCLC
  GI50: 6.07 µM
  TGI: 47.1 µM
OVCAR-4 ovarian
  GI50: 2.99 µM
  TGI: 14.1 µM
SNB-75 CNS
  GI50: 1.72 µM
  TGI: 4.88 µM
SF-539 CNS
  GI50: 6.92 µM
  TGI: 27.7 µM
KM12 colon
  GI50: 16.5 µM
  TGI: > 100 µM
HCC-2998 colon
  GI50: 20.7 µM
  TGI: > 100 µM
RPMI-8226 leukemia
  GI50: 10.7 µM
  TGI: 56.6 µM
HOP-62 NSCLC
  GI50: 3.6 µM
  TGI: 19.5 µM
HS 578T breast
  GI50: 1.95 µM
  TGI: 8.53 µM
NCI-H460 lung
  GI50: 3.9 µM
  TGI: 25 µM
COLO 205 colon
  GI50: 6.94 µM
  TGI: > 100 µM
T-47D breast
  GI50: 2.83 µM
  TGI: 26.5 µM
SK-MEL-28 melanoma
  GI50: 5.17 µM
  TGI: 28.6 µM
SF-268 CNS
  GI50: 7.58 µM
  TGI: 35.8 µM
SN12C renal
  GI50: 11.3 µM
  TGI: > 100 µM
M14 melanoma
  GI50: 11.3 µM
  TGI: > 100 µM
NCI/ADR-RES ovarian
  GI50: 10 µM
  TGI: 41.3 µM
K-562 leukemia
  GI50: 3.77 µM
  TGI: > 100 µM
NCI-H23 lung
  GI50: 4.62 µM
  TGI: 20.6 µM
SK-MEL-2 melanoma
  GI50: 9.23 µM
  TGI: 37 µM
786-0 renal
  GI50: 12.5 µM
  TGI: 42.7 µM
ACHN renal
  GI50: 4.95 µM
  TGI: 62.6 µM
OVCAR-3 ovarian
  GI50: 10.7 µM
  TGI: 35 µM
NCI-H522 lung
  GI50: 6.06 µM
  TGI: 52.1 µM
LOX IMVI melanoma
  GI50: 3.3 µM
  TGI: 13.2 µM
SNB-19 CNS
  GI50: 5.97 µM
  TGI: 45.5 µM
BT-549 breast
  GI50: 7.11 µM
  TGI: 29.7 µM
PC-3 prostate
  GI50: 6.16 µM
  TGI: 29.9 µM
A498 renal
  GI50: 1.56 µM
  TGI: 21.9 µM
SW-620 colon
  GI50: 6.77 µM
  TGI: 67.9 µM
HCT-15 colon
  GI50: 15 µM
  TGI: > 100 µM
HCT-116 colon
  GI50: 5.01 µM
  TGI: > 100 µM
MDA-MB-231 breast
  GI50: 5.39 µM
  TGI: 41.1 µM
MOLT-4 leukemia
  GI50: 12.9 µM
  TGI: 53.1 µM
HT29 colon
  GI50: 6.24 µM
  TGI: > 100 µM
IGROV1 ovarian
  GI50: 12.2 µM
  TGI: 52.3 µM
UACC-257 melanoma
  GI50: 10.6 µM
  TGI: > 100 µM
U251 CNS
  GI50: 4.08 µM
  TGI: 25 µM
SK-OV-3 ovarian
  GI50: 9.09 µM
  TGI: 40.6 µM
CAKI-1 renal
  GI50: 21.7 µM
  TGI: > 100 µM
UACC-62 melanoma
  GI50: 5.84 µM
  TGI: 39 µM
UO-31 renal
  GI50: 13.5 µM
  TGI: 49.3 µM
OVCAR-5 ovarian
  GI50: 22.5 µM
  TGI: > 100 µM
CCRF-CEM leukemia
  GI50: 7.09 µM
  TGI: 68.6 µM
SF-295 CNS
  GI50: 3.63 µM
  TGI: 19.5 µM
RXF 393 renal
  GI50: 6.78 µM
  TGI: 24.2 µM
MCF7 breast
  GI50: 5.62 µM
  TGI: > 100 µM
MDA-MB-435
  GI50: 9.55 µM
  TGI: > 100 µM
SK-MEL-5 melanoma
  GI50: 6.6 µM
  TGI: 45.4 µM
OVCAR-8 ovarian
  GI50: 8.56 µM
  TGI: > 100 µM
DU-145 prostate
  GI50: 5.07 µM
  TGI: 21.3 µM
MALME-3M melanoma
  GI50: 2.76 µM
  TGI: 8.77 µM
NCI-H226 lung
  GI50: 5.94 µM
  TGI: 56.1 µM
HOP-92 NSCLC
  GI50: 2.39 µM
  TGI: 8.27 µM
TK-10 renal
  GI50: 4.78 µM
  TGI: 22.9 µM
SR leukemia
  GI50: 2.09 µM
  TGI: 7.57 µM
